tested on: barnyardgrass (Echinochloa crus-galli); assay: Test A pre-/postemergence plant response; assay type: in vivo; settings: Postemergence, 125 g ai/ha; 0 to 100 scale where 0 is no effect and 100 is complete control
How it was run: (§1)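 Pre: directed soil spray on seeded loam/sand blend. Post: same formulation (non-phytotoxic solvent + surfactant) on 2–10 cm plants, 1–2 leaf stage. Greenhouse ~10 d; visual injury score 0–100 vs untreated.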

SMILES | Plant response rating, Barnyardgrass
COCCn1c(-c2cc(F)cc(F)c2)ncc(C(=O)C2=C(O)CCCC2=O)c1=O [Compound 119] | 80

same assay, conditions: Postemergence, 500 g ai/ha; 0 to 100 scale, 0 = no effect, 100 = complete control; approx. ten days

SMILES | Plant response rating, Barnyardgrass
COCCn1c(-c2cc(F)cc(F)c2)ncc(C(=O)C2=C(O)CCCC2=O)c1=O [Compound 119] | 90

same assay, conditions: Preemergence, 125 g ai/ha; 0 to 100 scale, 0 = no effect, 100 = complete control

SMILES | Plant response rating, Barnyardgrass
COCCn1c(-c2cc(F)cc(F)c2)ncc(C(=O)C2=C(O)CCCC2=O)c1=O [Compound 119] | 70

same assay, conditions: Preemergence, 500 g ai/ha; visual injury, 0 to 100 scale (0 no effect, 100 complete control), approx. ten days

SMILES | Plant response rating, Barnyardgrass
COCCn1c(-c2cc(F)cc(F)c2)ncc(C(=O)C2=C(O)CCCC2=O)c1=O [Compound 119] | 100

tested on: corn (Zea mays); assay: Test A pre-/postemergence plant response; assay type: in vivo; settings: Postemergence, 125 g ai/ha; 0 to 100 scale where 0 is no effect and 100 is complete control
How it was run: as §1

SMILES | Plant response rating, Corn
COCCn1c(-c2cc(F)cc(F)c2)ncc(C(=O)C2=C(O)CCCC2=O)c1=O [Compound 119] | 0

same assay, conditions: Postemergence, 500 g ai/ha; 0 to 100 scale, 0 = no effect, 100 = complete control; approx. ten days

SMILES | Plant response rating, Corn
COCCn1c(-c2cc(F)cc(F)c2)ncc(C(=O)C2=C(O)CCCC2=O)c1=O [Compound 119] | 70

same assay, conditions: Preemergence, 125 g ai/ha; 0 to 100 scale, 0 = no effect, 100 = complete control

SMILES | Plant response rating, Corn
COCCn1c(-c2cc(F)cc(F)c2)ncc(C(=O)C2=C(O)CCCC2=O)c1=O [Compound 119] | 20

same assay, conditions: Preemergence, 500 g ai/ha; visual injury, 0 to 100 scale (0 no effect, 100 complete control), approx. ten days

SMILES | Plant response rating, Corn
COCCn1c(-c2cc(F)cc(F)c2)ncc(C(=O)C2=C(O)CCCC2=O)c1=O [Compound 119] | 30

tested on: giant foxtail (Setaria faberii); assay: Test A pre-/postemergence plant response; assay type: in vivo; settings: Postemergence, 125 g ai/ha; 0 to 100 scale where 0 is no effect and 100 is complete control
How it was run: as §1

SMILES | Plant response rating, Foxtail, Giant
COCCn1c(-c2cc(F)cc(F)c2)ncc(C(=O)C2=C(O)CCCC2=O)c1=O [Compound 119] | 70

same assay, conditions: Postemergence, 500 g ai/ha; 0 to 100 scale, 0 = no effect, 100 = complete control; approx. ten days

SMILES | Plant response rating, Foxtail, Giant
COCCn1c(-c2cc(F)cc(F)c2)ncc(C(=O)C2=C(O)CCCC2=O)c1=O [Compound 119] | 90

same assay, conditions: Preemergence, 125 g ai/ha; 0 to 100 scale, 0 = no effect, 100 = complete control

SMILES | Plant response rating, Foxtail, Giant
COCCn1c(-c2cc(F)cc(F)c2)ncc(C(=O)C2=C(O)CCCC2=O)c1=O [Compound 119] | 90

same assay, conditions: Preemergence, 500 g ai/ha; visual injury, 0 to 100 scale (0 no effect, 100 complete control), approx. ten days

SMILES | Plant response rating, Foxtail, Giant
COCCn1c(-c2cc(F)cc(F)c2)ncc(C(=O)C2=C(O)CCCC2=O)c1=O [Compound 119] | 100

tested on: large crabgrass (Digitaria sanguinalis); assay: Test A pre-/postemergence plant response; assay type: in vivo; settings: Postemergence, 125 g ai/ha; 0 to 100 scale where 0 is no effect and 100 is complete control
How it was run: as §1

SMILES | Plant response rating, Crabgrass, Large
COCCn1c(-c2cc(F)cc(F)c2)ncc(C(=O)C2=C(O)CCCC2=O)c1=O [Compound 119] | 80

same assay, conditions: Postemergence, 500 g ai/ha; 0 to 100 scale, 0 = no effect, 100 = complete control; approx. ten days

SMILES | Plant response rating, Crabgrass, Large
COCCn1c(-c2cc(F)cc(F)c2)ncc(C(=O)C2=C(O)CCCC2=O)c1=O [Compound 119] | 90

same assay, conditions: Preemergence, 125 g ai/ha; 0 to 100 scale, 0 = no effect, 100 = complete control

SMILES | Plant response rating, Crabgrass, Large
COCCn1c(-c2cc(F)cc(F)c2)ncc(C(=O)C2=C(O)CCCC2=O)c1=O [Compound 119] | 100

same assay, conditions: Preemergence, 500 g ai/ha; visual injury, 0 to 100 scale (0 no effect, 100 complete control), approx. ten days

SMILES | Plant response rating, Crabgrass, Large
COCCn1c(-c2cc(F)cc(F)c2)ncc(C(=O)C2=C(O)CCCC2=O)c1=O [Compound 119] | 100

tested on: morningglory (Ipomoea spp.); assay: Test A pre-/postemergence plant response; assay type: in vivo; settings: Postemergence, 125 g ai/ha; 0 to 100 scale where 0 is no effect and 100 is complete control
How it was run: as §1

SMILES | Plant response rating, Morningglory
COCCn1c(-c2cc(F)cc(F)c2)ncc(C(=O)C2=C(O)CCCC2=O)c1=O [Compound 119] | 90

same assay, conditions: Postemergence, 500 g ai/ha; 0 to 100 scale, 0 = no effect, 100 = complete control; approx. ten days

SMILES | Plant response rating, Morningglory
COCCn1c(-c2cc(F)cc(F)c2)ncc(C(=O)C2=C(O)CCCC2=O)c1=O [Compound 119] | 100

same assay, conditions: Preemergence, 125 g ai/ha; 0 to 100 scale, 0 = no effect, 100 = complete control

SMILES | Plant response rating, Morningglory
COCCn1c(-c2cc(F)cc(F)c2)ncc(C(=O)C2=C(O)CCCC2=O)c1=O [Compound 119] | 60

same assay, conditions: Preemergence, 500 g ai/ha; visual injury, 0 to 100 scale (0 no effect, 100 complete control), approx. ten days

SMILES | Plant response rating, Morningglory
COCCn1c(-c2cc(F)cc(F)c2)ncc(C(=O)C2=C(O)CCCC2=O)c1=O [Compound 119] | 90

tested on: pigweed (Amaranthus retroflexus); assay: Test A pre-/postemergence plant response; assay type: in vivo; settings: Postemergence, 125 g ai/ha; 0 to 100 scale where 0 is no effect and 100 is complete control
How it was run: as §1

SMILES | Plant response rating, Pigweed
COCCn1c(-c2cc(F)cc(F)c2)ncc(C(=O)C2=C(O)CCCC2=O)c1=O [Compound 119] | 100

same assay, conditions: Postemergence, 500 g ai/ha; 0 to 100 scale, 0 = no effect, 100 = complete control; approx. ten days

SMILES | Plant response rating, Pigweed
COCCn1c(-c2cc(F)cc(F)c2)ncc(C(=O)C2=C(O)CCCC2=O)c1=O [Compound 119] | 100

Source: patent US8952024B2, “Herbicidal pyrimidone derivatives” (E I du Pont de Nemours and Company, priority 2009, dated 2015)
